Results taken from US5599793A, “Antithromobotic agents” (Eli Lilly and Company, priority 1995, dated 1997).

System: Human plasma
Assay: Human plasma anticoagulation, thrombin time (TT)
Type: biochemical
Conditions: concentration required to double the thrombin time, linear extrapolation
Procedure: Dog plasma and rat plasma is obtained from conscious mixed-breed hounds (either sex, Hazelton-LRE, Kalamazoo, Mich., U.S.A.) or from anesthetized male Sprague-Dawley rats (Harlan Sprague-Dawley, Inc., Indianapolis, Ind., U.S.A.) by venipuncture into 3.8 percent citrate. Fibrinogen is prepared from in-date ACD human blood as the fraction I-2 according to previous procedures and specifications. Smith, Biochem. J., 185, 1-11 (1980); and Smith, et al., Biochemistry, 11, 2958-2967 (1972). Human fibrinogen is also purchased as 98 percent pure/plasmin free from American Diagnostica, Greenwich, Conn. Coagulation reagents ACTIN, Thromboplastin, and Human plasma are from Baxter Healthcare Corp., Dade Division, Miami, Fla. Bovine thrombin from Parke-Davis ([…], Mich.) is used for coagulation assays in plasma.
Coagulation assay procedures are as previously described. Smith, et al., Thrombosis Research, 50, 163-174 (1988). A CoAScreener coagulation instrument (American LABor, Inc.) is used for all coagulation assay measurements. The prothrombin time (PT) is measured by adding 0.05 mL saline and 0.05 mL Thromboplastin-C reagent to 0.05 mL test plasma. The activated partial thromboplastin time (APTT) is measured by incubation of 0.05 mL test plasma with 0.05 mL Actin reagent for 120 seconds followed by 0.05 mL CaCl2 (0.02M). The thrombin time (TT) is measured by adding 0.05 mL saline and 0.05 mL thrombin (10 NIH units/mL) to 0.05 mL test plasma. The compounds of formula I are added to human or animal plasma over a wide range of concentrations to determine prolongation effects on the APTT, PT, and TT assays. Linear extrapolations are performed to estimate the concentrations required to double the clotting time for each assay.

In order of rising “2x Clotting time, TT” value:
1. CCS(=O)(=O)N[C@@H](C(=O)N1[C@H](C(=O)N[C@H](C=O)CCCNC(=N)N)C[C@@H]2CCCC[C@@H]21)c1ccccc1.Cl (relative stereo) [Example 22, EtSO2 -D-Phg-cis-Ohi-ArgH.HCl]  9 ng/mL
2. Cl.Cl.N=C(N)NCCC[C@@H](C=O)NC(=O)[C@@H]1C[C@H](Oc2ccccc2)CN1C(=O)C1NCCC2CCCCC21 (relative stereo) [Example 15, D-1-Piq-Pro(4-cis-phenoxy)-ArgH.2 HCl]  28 ng/mL
3. Cl.Cl.N=C(N)NCCC[C@@H](C=O)NC(=O)[C@@H]1CC2CCCCC2N1C(=O)[C@H]1CCCCN1 (relative stereo) [Example 7, N-[(1-D-homoprolyl-cis-octahydro-1H-indol-2(S)-yl)carbonyl]-L-argininal dihydrochloride]  37 ng/mL
4. Cl.Cl.Cl.N=C(N)NCCC[C@@H](C=O)NC(=O)[C@@H]1C[C@H](Oc2cccnc2)CN1C(=O)[C@H]1CCCCN1 (relative stereo) [Example 9, D-hPro-Pro(4-cis-(3-pyridyloxy))-ArgH.3 HCl]  50 ng/mL
5. CC[C@H]1C[C@@H](C(=O)N[C@H](C=O)CCCNC(=N)N)N(C(=O)[C@H]2CCCCN2)C1.Cl.Cl (relative stereo) [Example 2, D-homoprolyl-L-cis-4-ethyl-prolyl-L-argininal dihydrochloride]  51 ng/mL
6. C[C@H]1C[C@@H](C(=O)N[C@H](C=O)CCCNC(=N)N)N(C(=O)[C@H]2CCCCN2)C1.Cl.Cl (relative stereo) [Example 1, D-homoprolyl-L-cis-4-methyl-prolyl-L-argininal dihydrochloride]  60 ng/mL
7. Cl.Cl.N=C(N)NCCC[C@H](C=O)NC(=O)[C@@H]1C[C@H](Oc2ccccc2)CN1C(=O)[C@H]1CCCCN1 (relative stereo) [Example 8, D-homoprolyl-L-cis-4-phenoxy-L-prolyl-D-argininal dihydrochloride]  70 ng/mL
8. Cl.Cl.N=C(N)NCCC[C@@H](C=O)NC(=O)[C@@H]1C[C@H](Cc2ccccc2)CN1C(=O)[C@H]1CCCCN1 (relative stereo) [Example 5, D-hPro-Pro(4-cis-benzyl)-ArgH.2 HCl]  80 ng/mL
9. Cl.Cl.Cl.N=C(N)NCCC[C@@H](C=O)NC(=O)[C@@H]1C[C@H](Oc2ccc(N)cc2)CN1C(=O)[C@H]1CCCCN1 (relative stereo) [Example 11, D-hPro-Pro(4-cis-(4-NH2-phenoxy))-ArgH.3 HCl]  96 ng/mL
10. CCC[C@H]1C[C@@H](C(=O)N[C@H](C=O)CCCNC(=N)N)N(C(=O)[C@H]2CCCCN2)C1.Cl.Cl (relative stereo) [Example 3, D-hPro-Pro(4-cis-n-propyl)-ArgH.2 HCl]  120 ng/mL

Same assay, conditions: concentration required to double the thrombin time, linear extrapolation, HCl

In the case of `Cl.Cl.N=C(N)NCCCC(C=O)NC(=O)C1CC2CCCCC2N1C(=O)C1NCCC2CCCCC21` [Example 20, D-1-cis-Piq-cis-Ohi-ArgH.2 HCl], the “2x Clotting time, TT” value is reported as 19 ng/mL.
